Source: patent publication US5462952A, “Fenamate 1,3,4-thiadiazoles and 1,3,4-oxadiazoles as antiinflammatory agents” (Warner-Lambert Company, priority 1993, dated 1995)
Counter-ions that a name gives are not always drawn. Like-named read-outs stand apart in the source and are kept apart here. One block for each molecule: values may come before it.

Tests used:
[1] = target: T1, 5-Lipoxygenase (Rattus norvegicus, UniProt P12527); experiment: ARBL whole cell 5-lipoxygenase assay (LTB4 formation in RBL-1 cells, A23187-stimulated); assay type: cell-based; set-up: key to ARBL, activity at the screening dose: Not active at the screening dose; conditions: for IC50: Table 2; for ARBL, activity at the screening dose: Table 2, screening dose, class symbol N; for inhibition at 10 µM: Table 2, @ 10 μM
T1 construct: host or cells: RBL-1 (rat basophilic leukemia)
T1 sequence (P12527 1-673): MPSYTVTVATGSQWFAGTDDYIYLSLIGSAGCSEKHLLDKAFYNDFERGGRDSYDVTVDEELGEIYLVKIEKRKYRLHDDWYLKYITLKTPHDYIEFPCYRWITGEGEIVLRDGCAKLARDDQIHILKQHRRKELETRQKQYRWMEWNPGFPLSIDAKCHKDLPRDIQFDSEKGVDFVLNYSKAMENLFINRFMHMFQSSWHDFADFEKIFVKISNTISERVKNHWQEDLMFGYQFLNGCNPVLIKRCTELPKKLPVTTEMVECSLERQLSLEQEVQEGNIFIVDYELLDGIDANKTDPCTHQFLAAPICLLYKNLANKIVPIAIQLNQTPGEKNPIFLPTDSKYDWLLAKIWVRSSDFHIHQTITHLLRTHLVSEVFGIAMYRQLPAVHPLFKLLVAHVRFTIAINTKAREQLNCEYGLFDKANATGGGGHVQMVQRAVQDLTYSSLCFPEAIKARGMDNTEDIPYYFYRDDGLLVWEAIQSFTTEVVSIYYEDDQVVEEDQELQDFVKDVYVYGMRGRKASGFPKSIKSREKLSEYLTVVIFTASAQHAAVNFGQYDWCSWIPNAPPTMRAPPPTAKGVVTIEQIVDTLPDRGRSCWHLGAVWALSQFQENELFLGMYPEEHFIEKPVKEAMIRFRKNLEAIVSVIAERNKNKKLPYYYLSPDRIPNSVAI
Method: (§1) The rat basophilic leukemia cell line (RBL-1) was obtained from the American Type Culture Collection (Rockville, Md.).
(§2) Radioimmunoassay (RIA) kits of LTB4 and PGF2α were obtained from Amersham (Arlington Heights, Ill.) and Seragen (Boston, Mass.), respectively.
(§3) RBL-1 cells are grown in suspension culture in Eagle's minimum essential medium supplemented with 12% fetal bovine serum at 37° C. in an incubator supplied with air-5% carbon dioxide. Cells are harvested by centrifugation. They are washed with cold phosphate buffered saline pH 7.4 (PBS; NaCl, 7.1 g; Na2 HPO4, 1.15 g; KH2 PO4, 0.2 g; and KCl, 0.2 g/l). Cells are finally suspended in PBS containing 1.0 mM calcium at a density of 2×10^6 cells/ml. Cells are incubated with and without test agent (in DMSO) (1% DMSO is without effect on arachidonic acid metabolism) for ten minutes at room temperature. Calcium ionophore A23187 (5 μM) is added and cells are incubated for seven minutes at 37° C. The reaction is stopped by chilling the tubes on ice for ten minutes. Cells are separated by centrifugation and the supernatant is stored at -20°. Aliquots (100 μl) are analyzed for LTB4 and PGF2α using radioimmunoassay kits as provided by the supplier.
(§4) Tables 1 and 2 contain biochemical data obtained from the whole cell assay described above as IC50 s which are calculated as the concentration of test compound causing 50% inhibition of LTB4 or PGF2α formation. Table 2 also provides the dose at which 40% of swelling is inhibited in the CFE-2 assay.

[2] = tested on: Cyclooxygenase; experiment: ARBC whole cell cyclooxygenase assay (PGF2α formation in RBL-1 cells, A23187-stimulated); assay type: cell-based, rat; set-up: key to ARBC, activity at the screening dose: Not active at the screening dose; conditions: for ARBC, activity at the screening dose: Table 2, screening dose
Method: as §1, §2, §3, §4

[3] = tested on: Carrageenan-Induced Rat Foot Paw Edema; experiment: Carrageenan-Induced Rat Foot Paw Edema-2 (CFE-2) Assay; assay type: in vivo; conditions: 5 h, Table 2, dosed one hour before carrageenan, edema at five hours, probit analysis, read-out: CFE, ID40 (dose at which 40% inhibition of swelling occurs)
Method: Carrageenan solution (1% w/v) is prepared by dissolving 100 mg carrageenan (Marine Colloidal Div., Springfield, N.J.) in 10 ml of sterile saline (0.9%) solution (Travenol). The solution is vortexed for 30 to 45 minutes. Animals are dosed with compound one hour before carrageenan challenge. Foot paw edema is induced by injecting 0.10 ml of the 1% carrageenan subcutaneously into the plantar portion of the right hind paw of each rat under light anesthesia. Initial foot paw volume is measured immediately following carrageenan challenge using mercury plethysmography (Buxco Electronics). Edema is measured five hours after carrageenan. The difference between the 5-hour and the initial paw volume is expressed as delta edema. The delta edema for each test group of animals is used to calculate the percent inhibition of edema achieved by the compound at the test dose compared with the vehicle control group. The data in Table 1 (the dose at which swelling is inhibited by the noted) is calculated by probit analysis for the dose at which 40% inhibition occurs.
as §4

[4] = Table 1, 16 μM, read-out: ARBL, % inhibition of LTB4 at 16 μM
[5] = read-out: ARBL, % inhibition at given concentration

inhibition at 16 µM [1, 4]: 88%
SMILES: S=c1[nH]nc(Cc2ccccc2Nc2c(Cl)cccc2Cl)o1 [Example 7, 5-[[2-[(2,6-Dichlorophenyl)amino]phenyl]methyl]-1,3,4-oxadiazol-2(3H)-thion]
ARBC, % inhibition of PGF2α at 16 μM ([2]; Table 1, 16 μM, class symbol N): N (Less than 40% inhibition at 16 μM)

IC50 [1]: 3300 nM
IC50 ([2]; Table 2): 8480 nM
SMILES: Cc1ccc(Cl)c(Nc2ccccc2-c2nnc([S+](C)[O-])s2)c1Cl (stereo not shown) [Example 29, 2,6-Dichloro-3-methyl-N-[2-[5-(methylsulfinyl)-1,3,4-thiadiazol-2-yl]phenyl]benzenamine]

ARBL, activity at the screening dose [1]: N
SMILES: CSc1nnc(-c2ccccc2Nc2c(Cl)ccc(C)c2Cl)s1 [Example 28, 2,6-Dichloro-3-methyl-N-[2-[5-(methylthio)-1,3,4-thiadiazol-2-yl]phenyl]benzenamine]
ARBC, % inhibition at given concentration ([2]; Table 2, @ 10 μM): 60%

ARBL, activity at the screening dose [1]: N
SMILES: Cc1ccc(Cl)c(Nc2ccccc2-c2nnco2)c1Cl [Example 18, 2,6-Dichloro-3-methyl-N-[2-(1,3,4-oxadiazol-2-yl)phenyl]benzenamine]
ARBC, activity at the screening dose ([2]; class symbol N): N

IC50 ([2]; Table 2): 1040 nM
SMILES: N#CNc1nnc(-c2ccccc2Nc2cccc(C(F)(F)F)c2)o1 [Example 26, 5-[2-[[3-(Trifluoromethyl)phenyl]amino]phenyl]-1,3,4-oxadiazol-2-yl-cyanamide]

IC50 [1]: 910 nM
IC50 ([2]; Table 2): 1790 nM
SMILES: Cc1ccc(Cl)c(Nc2ccccc2-c2nnc([S+](C)[O-])o2)c1Cl (stereo not shown) [Example 21, 2,6-Dichloro-3-methyl-N-[2-[5-(methylsulfinyl)-1,3,4-oxadiazol-2-yl]phenyl]benzenamine]

IC50 [1]: 1000 nM
SMILES: Cc1cccc(Nc2ccccc2-c2n[nH]c(=S)o2)c1C [Example 9, 5-[2-[(2,3-Dimethylphenyl)amino]phenyl]-1,3,4-oxadiazole-2(3H)-thione]

ARBL, activity at the screening dose [1]: N
SMILES: CSc1nnc(-c2ccccc2Nc2c(Cl)ccc(C)c2Cl)o1 [Example 19, 2,6-Dichloro-3-methyl-N-[2-[5-(methylthio)-1,3,4-oxadiazol-2-yl]phenyl]benzenamine]
ARBC, % inhibition at given concentration ([2]; Table 2, @ 10 μM): 55%

IC50 [1]: 890 nM
IC50 ([2]; Table 2): 250 nM
SMILES: Cc1ccc(Cl)c(Nc2ccccc2-c2nnc(NC#N)o2)c1Cl [Example 23, 5-[2-[(2,6-Dichloro-3-methylphenyl)amino]phenyl]-1,3,4-oxadiazol-2-yl-cyanamide]

IC50 [1]: 770 nM
IC50 ([2]; Table 2): 270 nM
SMILES: FC(F)(F)c1cccc(Nc2ccccc2-c2n[nH]c(=S)o2)c1 [Example 6, 5-[2-[[3-(Trifluoromethyl)phenyl]amino]phenyl]-1,3,4-oxadiazol-2(3H)-thione]
ED40 [3]: 8.5 mg/kg

inhibition at 10 µM [1, 5]: 45%
SMILES: Cc1ccc(Cl)c(Nc2ccccc2-c2nnc(N)o2)c1Cl [Example 17, 5-[2-[[2,6-Dichloro-3-methylphenyl]amino]phenyl]-1,3,4-oxadiazol-2-amine]
ARBC, activity at the screening dose ([2]; class symbol N): N

IC50 [1]: 870 nM
IC50 ([2]; Table 2): 850 nM
SMILES: FC(F)(F)c1cccc(Nc2ccccc2-c2n[nH]c(=S)s2)c1 [Example 12, 5-[2-[(3-Trifluoromethylphenyl)amino]phenyl]-1,3,4-thiadiazole-2(3H)-thione]
ED40 [3]: 4.7 mg/kg

IC50 [1]: 690 nM
IC50 ([2]; Table 2): 11000 nM
SMILES: Nc1nnc(-c2ccccc2Nc2cccc(C(F)(F)F)c2)s1 [Example 10, 5-[2-[(3-Trifluoromethylphenyl)amino]phenyl]-1,3,4-thiadiazol-2-amine]

ARBL, activity at the screening dose [1]: N
SMILES: Cc1cccc(Nc2ccccc2-c2n[nH]c(=O)o2)c1C [Example 8, 5-[2-[(2,3-Dimethylphenyl)amino]phenyl]-1,3,4-oxadiazol-2(3H)-one]
ARBC, activity at the screening dose ([2]; class symbol N): N

IC50 [1]: 6320 nM
IC50 ([2]; Table 2): 3000 nM
SMILES: Cc1ccc(Cl)c(Nc2ccccc2-c2nnc(S(C)(=O)=O)o2)c1Cl [Example 20, 2,6-Dichloro-3-methyl-N-[2-[5-(methylsulfonyl)-1,3,4-oxadiazol-2-yl]phenyl]benzenamine]

IC50 [1]: 600 nM
IC50 ([2]; Table 1, footnote c): 6100 nM
IC50 ([2]; Table 2): 6100 nM
SMILES: Cc1ccc(Cl)c(Nc2ccccc2-c2nnc(N)s2)c1Cl [Example 4, 5-[2-[(2,6-Dichloro-3-methylphenyl)amino]phenyl]-1,3,4-thiadiazol-2-amine]

IC50 [1]: 680 nM
IC50 ([2]; Table 2): 7120 nM
SMILES: Nc1nnc(-c2ccccc2Nc2cccc(C(F)(F)F)c2)o1 [Example 16, 5-[2-[[3-(Trifluoromethyl)phenyl]amino]phenyl]-1,3,4-oxadiazol-2-amine]

inhibition at 10 µM [1, 5]: 100%
SMILES: C[S+]([O-])c1nnc(-c2ccccc2Nc2cccc(C(F)(F)F)c2)s1 (stereo not shown) [Example 31]
ARBC, % inhibition at given concentration ([2]; Table 2, @ 10 μM): 51%

inhibition at 10 µM [1, 5]: 66%
SMILES: CSc1nnc(-c2ccccc2Nc2cccc(C(F)(F)F)c2)s1 [Example 30, 3-Trifluoromethyl-N-[2-[5-(methylthio)-1,3,4-thiadiazol-2-yl]phenyl]benzenamine]
ARBC, % inhibition at given concentration ([2]; Table 2, @ 10 μM): 44%

inhibition at 10 µM [1, 5]: 100%
SMILES: N=C(N)Nc1nnc(-c2ccccc2Nc2cccc(C(F)(F)F)c2)o1 [Example 27, 5-[2-[[3-(Trifluoromethyl)phenyl]amino]phenyl]-1,3,4-oxadiazol-2-yl-guanidine hydrochloride]
ARBC, activity at the screening dose ([2]; class symbol N): N

ARBL, activity at the screening dose [1]: N
SMILES: Cc1ccc(Cl)c(Nc2ccccc2-c2n[nH]c(=O)o2)c1Cl [Example 1]
ARBC, activity at the screening dose ([2]; class symbol N): N

ARBL, activity at the screening dose [1]: N
SMILES: CSc1nnc(-c2ccccc2Nc2cccc(C(F)(F)F)c2)o1 [Example 24, N-[2-[5-(Methylthio)-1,3,4-oxadiazol-2-yl]phenyl]-3-trifluoromethyl benzenamine]
ARBC, % inhibition at given concentration ([2]; Table 2, @ 10 μM): 44%

ARBL, activity at the screening dose [1]: N
SMILES: CS(=O)(=O)c1nnc(-c2ccccc2Nc2cccc(C(F)(F)F)c2)o1 [Example 25, N-[2-[5-(Methylsulfonyl)-1,3,4-oxadiazol-2-yl]phenyl]-3-trifluoromethyl benzenamine]
ARBC, % inhibition at given concentration ([2]; Table 2, @ 10 μM): 48%

inhibition at 10 µM [1, 5]: 46%
SMILES: Cc1ccc(Cl)c(Nc2ccccc2-c2nnc(NC(=N)N)o2)c1Cl [Example 22, 5-[2-[(2,6-dichloro-3-methylphenyl)amino]phenyl]-1,3,4-oxadiazol-2-yl-guanidine monohydrochloride]
ARBC, activity at the screening dose ([2]; class symbol N): N

inhibition at 16 µM [1, 4]: 97%
IC50 [1]: 740 nM
IC50 ([2]; Table 1, footnote c): 700 nM
IC50 ([2]; Table 2): 700 nM
SMILES: Cc1ccc(Cl)c(Nc2ccccc2-c2n[nH]c(=S)o2)c1Cl [Example 2, 5-[2-[(2,6-Dichloro-3-methylphenyl)amino]phenyl]-1,3,4-oxadiazol-2(3H)-thione]

inhibition at 16 µM ([1]; Table 2, @ 16 μM, read-out: ARBL, % inhibition at given concentration): 100%
SMILES: Cc1ccc(Cl)c(Nc2ccccc2-c2n[nH]c(=S)s2)c1Cl [Example 5, 5-[2-[(2,6-Dichloro-3-methylphenyl)amino]phenyl]-1,3,4-thiadiazol-2(3H)-thione]
ARBC, % inhibition at given concentration ([2]; Table 2, @ 16 μM): 47%
